Data taken from the NIST ThermoML archive (doi:10.1007/s10765-017-2256-0).
Where “and” joins values, the source holds several entries; their conditions need not be identical. Equal values may be shown once.

Details: for mass density: 407.69 K, Fluid (supercritical or subcritical phases), Bellows volumetry

CC(C)C [2-methylpropane]
Details | mass density
3627.5 kPa | 203.1 kg/m3
3629.3 kPa | 205.78 kg/m3
3631.2 kPa | 208.58 kg/m3
3632.8 kPa | 211.59 kg/m3
3634 kPa | 214.88 kg/m3
3634.8 kPa | 218.47 kg/m3
3635.3 kPa | 222.42 kg/m3
3635.4 kPa | 223.5 kg/m3
3635.7 kPa | 225.57 kg/m3 and 226.64 kg/m3
3636.3 kPa | 228.77 kg/m3
3637 kPa | 230.86 kg/m3
3638.4 kPa | 235.26 kg/m3
3639.6 kPa | 239.96 kg/m3
3641.1 kPa | 244.93 kg/m3

Details | Critical temperature [K]
Liquid, Visual observation in a stirred cell | 407.69
